What was measured:
[1] = Solute binding efficiency of nanospheres (HPLC); assay type: physicochemical
Experimental: The concentrations of the solutes were assayed by high-performance liquid chromatography (HPLC) using a Waters 2695 HPLC system equipped with UV/vis detector (Waters 2487, Dual 1 Absorbance Detector). Chromatographic separations were achieved using a RP-C18 column (Perkin-Elmer Brownlee Analytical C-18 column, 33 mm×4.6 mm) at 25° C. […] The mobile phase was delivered at a flow rate of 1 mL/min. […] Standard calibration samples were prepared at concentrations ranging from 1 to 50 μg/mL for all solutes. […] In addition, the specificity was determined by comparing the results obtained in the analysis of placebo supernatant, containing only nanospheres, with those obtained in the analysis of all standard solutions of the solutes and no interference from nanospheres was observed. To determine the solute binding efficiency, a predetermined aliquot of the purified nanosphere-solute complex suspension was withdrawn and freeze-dried, and the dry residue was accurately weighted before thoroughly dissolving in the extraction solvent. […] Solutes complexation by the nanospheres was characterized by the following ratio: [formula] Solutions of each solute in propylene glycol (PG) were prepared by stirring an excess of the molecule in PG at room temperature for 24 h. The samples were filtered through 0.22%μm PVDF syringe filters (Millipore, Bedford, Mass.), and the filtrates were used for all subsequent characterizations and experiments. For passive permeation experiments, the equal concentration (confirmed using RP-HPLC) of all solutes in both PG and nanospheres was achieved by subsequent dilution of either PG-solute solution with PG or NSP-solute formulation with PBS.

[2] = Dye penetration into skin layers, fluorescent microscopy of cryosectioned skin after passive permeation
Experimental: Human skin: The full thickness dermatomed (˜500 μm) human skin derived from the abdominal regions of female Caucasian cadavers were obtained from AlloSource (Englewood, Colo.) and stored at −80° C. Just before each experiment, the skin was allowed to thaw to room temperature and then used immediately for in vitro transport studies.
The receptor compartments were filled with 0.155 M phosphate buffered saline (pH 7.4, 5.1 mL), which was stirred at 600 rpm. The fluid in each receptor compartment was maintained at 37±0.5° C. by the use of a thermostatic water pump (Haake DC10, Karlsruhe, Germany) that circulated water through the jacket surrounding each main chamber. […] The skins were initially left in the Franz cells for 1 h in order to facilitate hydration of the membranes.
In all experiments, the donor compartment of the sampling port of each Franz cell was covered with a taught layer of Parafilm®, and the whole set up was roofed with aluminum foil to prevent the dye bleaching. Each permeation experiment was conducted in sextuplicate or quadruplicate (in case of time-dependency experiments).
At the end of the permeation experiment, the excess formulation was removed from the skin surface, skin sections were detached from the diffusion cells, washed three times with PBS, and dried gently with delicate task wipers (Kimwipes). The skins were frozen at −20° C., and 0.2×0.5 cm piece from the treated area was cut out and imbedded in optimal cutting temperature compound (OCT). A cryostat (Leica Cryostat CM 3050S, Wetzlar, Germany) was used to prepare the cross-section of full skin perpendicular to the skin surface. Nine to twelve vertical sections with a thickness of 20 μm each were obtained and stored at −4° C. till analyzed microscopically.
Fluorescent microscopy. Skin sections were subjected to both fluorescent and phase-contrast microscopy using Olympus CK40 microscope equipped with a UV source and filters for fluorescent measurement. Image capture and analysis were carried out using Olympus Microsuite™ B35V program. […] Images were recorded setting the camera integration time of 500 ms. The same parameters were used for imaging all samples and no corrections for the background fluorescence were made.
Quantitative analysis of dye penetration into skin was obtained by calculating pixel intensities from fluorescence measurements of skin sections. Image analysis was carried out for the epidermis (EP; consisting of stratum corneum and the viable epidermis), superficial dermis (SD) and lower dermis (LD) as schematically represented in FIG. 5. The superficial dermis is defined as the region measuring around 100 μm below the epidermis and the lower dermis is the remaining portion of the dermis below the superficial dermis.
H&E staining of the skin section (FIG. 5) was used to define the above layers for which quantitative analysis of dyes penetration was carried out.

SMILES | final concentration of solutes in nanospheres solutions [1] [µg/mL] | decrease of dye penetration from EP into the dermis [2] | decrease of fluorescence intensities from EP to LD ([2]; 24 hrs, NSP-dye formulations) [fold] | PE (penetration effect), fluorescence in epidermis ([2]; female, human, 24 h, pH 7.4) [ABU] | change in dye penetration from EP to LD [2]
COc1cc(/C=C/C(=O)CC(=O)/C=C/c2ccc(O)c(OC)c2)ccc1O [curcumin] | 190 |  |  |  | 
CCN(CC)c1ccc2nc3c4ccccc4c(=O)cc-3oc2c1 [NR, Nile Red] | 200 | about five fold | 2.5 | 48.6±1.3 | 
CCCCCCCCCCCC(=O)Nc1ccc2c(c1)C(=O)OC21c2ccc(O)cc2Oc2cc(O)ccc21 [DAF, 5-Dodecanoylaminofluorescein] | 180 | about two and a half fold |  |  | increase
